Drawing on patent US10562869B2, “Oxadiazole compounds” (REMYND NV, priority 2014, dated 2020), this text covers EC50 for 24 compounds.

Usually EC50 stands for the midpoint of the concentration-response curve.

The test system of the first assay is INS-1E cells. In words: Cytokine-induced caspase-3/7 activation in INS-1E cells (beta cell stress/apoptosis model, Caspase-Glo 3/7). The assay is classed as cell-based. As to conditions: Rattus norvegicus, cytokine mix (IFN-γ, IL-1β, TNF-α), 24 hours, caspase 3/7 activity, read-out: CYT EC50. The text has this:
The INS-1E cell line, a rat insulinoma cell line, has been characterized extensively. INS-1E cells respond to glucose by secreting insulin and, unlike most other immortalized β-cell lines, they do this in a consistent manner over time. The cells are sensitive to hyperglycemia-, free fatty acid (FFA)-, and cytokine-induced stress. Prolonged stress ultimately leads to induction of apoptotic pathways and, if stress is not counter-acted, to apoptosis. Caspase-3 and -7 play a central role downstream where various apoptotic pathways merge. As such, activation (i.e. cleavage) of these caspases forms a relevant primary read-out to evaluate protective activity of compounds against stress-induced apoptosis.
To evaluate the efficacy of different compounds to prevent induction of apoptosis, an in vitro screen was developed in which INS-1E cells were exposed to a cytokine mix (IFN-γ, 5 ng/ml; IL-1β, 20 pg/ml; TNF-α, 0.25 ng/ml). The degree of induction of apoptosis was evaluated using a substrate for cleaved caspase-3 and -7, i.e. a proluminescent caspase-3/7 DEVD aminoluciferin substrate with a thermostable luciferase (Caspase-Glo® 3/7 assay; Promega, cat. G8092).
On day 0, INS-1E cells were plated in a white-walled 96-well microplate (Greiner, cat. 655098) at 20,000 cells per well in 100 μl complete medium (RPMI containing 11 mM glucose supplemented with 5% FCS, 100 IU/ml penicillin, 100 μg/ml streptomycin, 10 mM HEPES, 1 mM Sodium Pyruvate and 50 μM 2-Mercapto-ethanol). On day 2, 100 μl medium containing cytokines and compound dissolved in DMSO was added to the cells. Wells without cytokines containing DMSO and wells with cytokines and DMSO were included to evaluate the degree of caspase 3/7 activation by the cytokine mix. After 24 hours exposure to cytokines and/or compound, Caspase-Glo® 3/7 reagent was added to the cells and caspase activity was determined by measuring luminescence.
To evaluate compound efficacy, the “toxicity window” was calculated by subtracting caspase activity of wells without stressor from activity of wells with stressor but without compound. The amount of caspase activity in the latter wells was normalized to 1 and used as reference. Subsequently, caspase activity in the wells with stressor and varying concentrations of compound was calculated relative to the wells without compound. Plotting caspase activity vs the log 10 of the concentration of compound permitted calculation of the EC50 values for the compounds which typically lied between 0.0001 and 10 μM. Compounds with an EC50<10 μM were considered active.
For `CSc1ccc(S(=O)(=O)N2CCN(c3nc(C4(c5ccc(Cl)cc5)CC4)no3)CC2)cc1` [Cmpd141, 1-{3-[1-(4-Chloro-phenyl)-cyclopropyl]-[1,2,4]oxadiazol-5-yl}-4-(4-methylsulfanyl-benzenesulfonyl)-piperazine], the EC50 was found to be 19 nM.
The same measure, in the same setting: the same measure for `CSc1ccc(S(=O)(=O)N2CCN(c3nc(C4C[C@@H]5CC[C@H]4C5)no3)CC2)cc1` (stereo partly drawn) [Cmpd191, 3-((1S,4R)-bicyclo[2.2.1]heptan-2-yl)-5-(4-((4-(methylthio)phenyl)sulfonyl)piperazin-1-yl)-1,2,4-oxadiazole]: 554 nM.

Another assay has as its system M17_3TAU(P301L) cells. Put plainly: Retinoic acid-induced cytotoxicity (LDH) in TAU-P301L expressing M17_3TAU(P301L) neuroblastoma cells. The assay is classed as cell-based. As to conditions: Homo sapiens, Neuroblastoma cell, 168 h; toxicity inhibition (LDH) in M17_3TAU(P301L) cells challenged with retinoic acid, 7 days. The text has this: A TAU expression plasmid was constructed by sub-cloning the cDNA encoding for human TAU-P301L protein, wherein proline at position 301 was substituted by a leucine residue, into mammalian expression vector pcDNA3.1 resulting in the plasmid pcDNA3.1-TAUP301L. Plasmid pcDNA3.1-TAU P301L was transfected into human neuroblastoma cells (BE-M17; ATCC No. CRL-2267™) using lipofectamine reagent and subsequently, independent clonal cell lines with the plasmids stably integrated into the genome were selected by antibiotic resistance selection (Geneticin (G418)), resulting in cell line M17_3TAUP301L. Expression of the TAUP301L gene in the M17_3TAUP301L cells was confirmed by Western blot analysis.
M17_3TAU(P301L) cells were treated chronically with retinoic acid (RA) in low serum conditions to induce Alzheimer's disease-like intracellular signaling deregulation leading to increased TAU levels and subsequent cell death. Cytotoxicity of cells was measured by quantification of lactate dehydrogenase (LDH) levels. In dead cells LDH leaked out of the cells into the medium due to a loss of plasma-membrane integrity.
3 days preceding the experiment, a pre-culture of M17_3TAU(P301L) cells was prepared, starting from a stock culture, at a density of 50.000-100.000 cells/cm^2 in culture medium (Optimem Reduced Serum with phenol red (Invitrogen, Cat. 31985-047)) supplemented with 10% fetal calf serum (FCS), 1 mM sodium pyruvate, 1×non-essential amino acids (NEAA), 500 μg/ml G418 and 0.5×(ABAM). At the day of the experiment these precultures were diluted to ˜0.1·10^6 cells/ml in detection medium (Optimem Reduced Serum without phenol red (Gibco, Cat.11058-021) supplemented with 1% fetal calf serum (FCS), 1 mM sodium pyruvate, 1×non-essential amino acids (NEAA), 500 μg/ml G418 and 0.5×ABAM) and 60 μL of this suspension was dispensed per well into a 96-well microtiter plate. After 3 hours of incubation at 37° C./5% CO2 an equal volume of detection medium (without FCS) containing 3.75 μM RA was added and subsequently incubated for 7 days at 37° C./5% CO2. Then LDH activity was determined using the Promega Cytotox 96 Non-Radioactive cytotoxicity assay (Cat. G1780), according to the manufacturer's instructions. Cytotoxicity was defined as the ratio of LDH relative the total LDH in the cells and supernatant.
The assay described above using the M17_3TAU(P301L) cell line allowed to screen compounds for their ability to decrease cytotoxicity in RA-challenged cells. Compounds of the invention were tested for their ability to decrease toxicity at different concentrations, ranging from low non-effective concentrations to high potent concentrations. Afterwards, the dose-dependent inhibition curve was used to calculate their EC50. A compound was considered to be active in this test when it inhibited toxicity by more than 20% relative to untreated M17_3TAU(P301L) cells at a concentration of 10 μM or lower.
Turning to `CC(C)CCN1CCN(c2nc(Cc3ccc(Cl)cc3)no2)CC1` [Cmpd067, 3-(4-Chlorobenzyl)-5-(4-isopentylpiperazin-1-yl)-1,2,4-oxadiazole], the 50% effective concentration (EC50) worked out at 22 nM.
Compound `COc1cc(CCN2CCN(c3nc(-c4ccccc4)no3)CC2)ccn1` [Cmpd004, 5-(4-(2-(2-Methoxypyridin-4-yl)ethyl)piperazin-1-yl)-3-phenyl-1,2,4-oxadiazole] came in with an EC50 of 36 nM.
The same measure, in the same setting: the same measure for `N#CCCCN1CCN(c2nc(Cc3ccc(Cl)cc3)no2)CC1` [Cmpd064, 4-{4-[3-(4-Chloro-benzyl)-[1,2,4]oxadiazol-5-yl]-piperazin-1-yl}-butyronitrile]: 54 nM; for `FC(F)(F)CCc1noc(N2CCN(Cc3ccccc3Cl)CC2)n1` [Cmpd177, 5-(4-(2-Chlorobenzyl)piperazin-1-yl)-3-(3,3,3-trifluoropropyl)-1,2,4-oxadiazole]: 172 nM; for `CC(C)CCN1CCN(c2nc(-c3ccccc3)no2)CC1` [Cmpd006, 5-(4-Isopentylpiperazin-1-yl)-3-phenyl-1,2,4-oxadiazole]: 8 nM.
In turn, `COc1cccc(CCN2CCN(c3nc(-c4ccc(C)cc4)no3)CC2)c1` [Cmpd009, 5-(4-(3-Methoxyphenethyl)piperazin-1-yl)-3-(p-tolyl)-1,2,4-oxadiazole] came in with an EC50 of 39 nM.
Still for that read-out and setting: as for `Cc1ccc(CN2CCN(c3nc(-c4cccc(F)c4)no3)CC2)cc1` [Cmpd030, 3-(3-Fluorophenyl)-5-(4-(4-methylbenzyl)piperazin-1-yl)-1,2,4-oxadiazole], the figure is 13 nM; as for `COc1cc(CCN2CCN(c3nc(-c4cccc(Cl)c4)no3)CC2)ccn1` [Cmpd025, 3-(3-Chlorophenyl)-5-(4-(2-(2-methoxypyridin-4-yl)ethyl)piperazin-1-yl)-1,2,4-oxadiazole], 14 nM.
On the same count and under the same terms, the same measure for `Fc1ccc(-c2noc(N3CCN(CCc4ccc(Cl)cc4)CC3)n2)cc1F` [Cmpd036, 1-[2-(4-Chloro-phenyl)-ethyl]-4-[3-(3,4-difluoro-phenyl)-[1,2,4]oxadiazol-5-yl]-piperazine]: 22 nM; for `COc1cc(CCN2CCN(c3nc(-c4cccc(F)c4)no3)CC2)ccn1` [Cmpd032, 3-(3-Fluorophenyl)-5-(4-(2-(2-methoxypyridin-4-yl)ethyl)piperazin-1-yl)-1,2,4-oxadiazole]: 8 nM.
The same measure, in the same setting: the same measure for `FC(F)(F)c1ccc(-c2noc(N3CCN(CCc4ccc(Cl)cc4)CC3)n2)cc1` [Cmpd183, 1-[2-(4-Chloro-phenyl)-ethyl]-4-[3-(4-trifluoromethyl-phenyl)-[1,2,4]oxadiazol-5-yl]-piperazine]: 57 nM; for `Cc1cccc(CN2CCN(c3nc(CCC(F)(F)F)no3)CC2)n1` [Cmpd182, 5-(4-((6-Methylpyridin-2-yl)methyl)piperazin-1-yl)-3-(3,3,3-trifluoropropyl)-1,2,4-oxadiazole]: 282 nM.
Regarding `COc1cccc(CCN2CCN(c3nc(Cc4cccc(F)c4)no3)CC2)c1` [Cmpd090, 1-[3-(3-Fluoro-benzyl)-[1,2,4]oxadiazol-5-yl]-4-[2-(3-methoxy-phenyl)-ethyl]-piperazine], a half-maximal response (EC50) required 37 nM.
On the same count and under the same terms, as for `Cc1ccc(-c2noc(N3CCN(Cc4ccccc4C)CC3)n2)cc1` [Cmpd010, 5-(4-(2-Methylbenzyl)piperazin-1-yl)-3-(p-tolyl)-1,2,4-oxadiazole], the figure is 306 nM.
On the same count and under the same terms, the same measure for `COc1cccc(CCN2CCN(c3nc(C4(c5ccc(F)cc5)CC4)no3)CC2)c1` [Cmpd109, 3-(1-(4-Fluorophenyl)cyclopropyl)-5-(4-(3-methoxyphenethyl)piperazin-1-yl)-1,2,4-oxadiazole]: 487 nM; for `c1ccc(-c2noc(N3CCN(CCN4CCOCC4)CC3)n2)cc1` [Cmpd005, 4-(2-(4-(3-Pphenyl-1,2,4-oxadiazol-5-yl)piperazin-1-yl)ethyl)morpholine]: 41 nM.
Take `Cc1cc(Cc2noc(N3CCN(CCc4ccc(Cl)cc4)CC3)n2)ccn1` [Cmpd170, 5-(4-(4-Chlorophenethyl)piperazin-1-yl)-3-((2-methylpyridin-4-yl)methyl)-1,2,4-oxadiazole]: the midpoint of the response, the EC50, lay at 640 nM.
Still for that read-out and setting: as for `Fc1ccc(C2(c3noc(N4CCN(CCc5ccc(Cl)cc5)CC4)n3)CC2)cc1` [Cmpd111, 5-(4-(4-Chlorophenethyl)piperazin-1-yl)-3-(1-(4-fluorophenyl)cyclopropyl)-1,2,4-oxadiazole], the figure is 237 nM; as for `COc1cc(CCN2CCN(c3nc(C4(c5ccccc5)CC4)no3)CC2)ccn1` [Cmpd131, 5-(4-(2-(2-Methoxypyridin-4-yl)ethyl)piperazin-1-yl)-3-(1-phenylcyclopropyl)-1,2,4-oxadiazole], 135 nM; as for `COc1cc(CCN2CCN(c3nc(CCC(F)(F)F)no3)CC2)ccn1` [Cmpd175, 5-(4-(2-(2-Methoxypyridin-4-yl)ethyl)piperazin-1-yl)-3-(3,3,3-trifluoropropyl)-1,2,4-oxadiazole], 105 nM.
Same read-out and setting: as for `Clc1ccc(CCN2CCN(c3nc(C4C[C@@H]5CC[C@H]4C5)no3)CC2)cc1` (stereo partly drawn) [Cmpd186, 3-((1S,4R)-bicyclo[2.2.1]heptan-2-yl)-5-(4-(4-chlorophenethyl)piperazin-1-yl)-1,2,4-oxadiazole], the figure is 17 nM; as for `COc1cccc(CCN2CCN(c3nc(-c4ccc(Cl)cc4)no3)CC2)c1` [Cmpd021, 3-(4-Chlorophenyl)-5-(4-(3-methoxyphenethyl)piperazin-1-yl)-1,2,4-oxadiazole], 5 nM.

The next assay deals with M17_3SYN cells. In words: Paraquat-induced cytotoxicity (LDH) in α-synuclein over-expressing M17_3SYN neuroblastoma cells. The format is cell-based, human. As to conditions: Homo sapiens, Neuroblastoma cell, 48 h, toxicity inhibition (LDH) in M17_3SYN cells challenged with 6 mM paraquat, 2 days; read-out: SYN EC50. A digest of the protocol: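 Human BE-M17 neuroblastoma cells stably overexpressing wild-type α-synuclein challenged with paraquat (final 6 mM) for 2 days at 37 °C alongside compounds over a concentration range. Cytotoxicity as LDH released relative to total LDH; EC50 from dose-dependent inhibition curve.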
As to `CSc1ccc(S(=O)(=O)N2CCN(c3nc(C4(c5ccc(Cl)cc5)CC4)no3)CC2)cc1` [Cmpd141, 1-{3-[1-(4-Chloro-phenyl)-cyclopropyl]-[1,2,4]oxadiazol-5-yl}-4-(4-methylsulfanyl-benzenesulfonyl)-piperazine], the EC50 turned out to be 12 nM.
The same measure, in the same setting: as for `CSc1ccc(S(=O)(=O)N2CCN(c3nc(C4C[C@@H]5CC[C@H]4C5)no3)CC2)cc1` (stereo partly drawn) [Cmpd191, 3-((1S,4R)-bicyclo[2.2.1]heptan-2-yl)-5-(4-((4-(methylthio)phenyl)sulfonyl)piperazin-1-yl)-1,2,4-oxadiazole], the figure is 109 nM.
